Source: paper PMC9307983 (Acta Naturae, 2022)
Read-outs that look alike come from different tables or passages of the source. Marks after values point to notes of the source that are not given here.

Assays:
MGL, wild type [1] = conditions: cited from earlier work
MGL, Ser339Ala [2] = target: T1, MGL, Ser339Ala (Citrobacter freundii, UniProt Q84AR1, S339A); type: biochemical; conditions: for Km / kcat: Ser339Ala MGL, 30°C, pH 8.0, coupled with HOHxoDH or LDH; for specific activity: Ser339Ala MGL samples of 95% purity, 30 mM substrate, pH 8.0
Experimental: The homogeneity of samples was examined by PAGE electrophoresis under denaturing conditions. During purification, activity was determined in the β-elimination reaction; activity of the final sample was determined in β- and γ-elimination reactions. […] The amount of enzyme that catalyzes the formation of […] of keto acid was defined as the unit of enzymatic activity.
(§1) The kinetic parameters of the γ- and β-elimination reactions were determined at 30°C in the conjugate reaction with HOHxoDH or LDH based on a decrease in NADH absorbance at 340 nm (Δε = 6,220 M^–1cm^–1). The reaction mixtures contained a 100-mM potassium phosphate buffer, pH 8.0, 0.1 mM PLP, 1 mM DTT, 0.2 mM NADH, 70 μg HOHxoDH or 10 U LDH, and variable amounts of the substrate in a total volume of 1 mL. The reaction was initiated by the addition of 10 μg of the enzyme.
(§2) The kinetic parameters were calculated according to the Michaelis–Menten equation using the EnzFitter software. In the calculations, an enzyme subunit molecular weight of 43 kDa was used. The inhibition constants were also determined using the EnzFitter software.

MGL, Ser339Ala [3] = target: T1, MGL, Ser339Ala; type: biochemical; conditions: for kex, α-H (exchange rate of C-α-proton) / kex, β-H (exchange rate of C-β-protons): Ser339Ala MGL, D2O, pD 7.6, 30°C, L-alanine 144.23 mM, L-norleucine 98.04 mM; for Number of exchanged C-α-protons / Number of exchanged C-β-protons: common to wild type and Ser339Ala MGL
Experimental: The kinetics of isotope exchange reactions of the C-α- and C-β-protons for deuteron in inhibitors, catalyzed by the mutant form, was detected using 1H NMR spectroscopy. The reaction was conducted in D2O containing 50 mM potassium phosphate (pD = 7.6), 0.1 mM PLP, and an inhibitor in a total volume of 0.5 mL at 30°C at L-alanine and L-norleucine concentrations of 144.23 mM and 98.04 mM, respectively. The reaction was initiated by adding 0.3–0.7 mg of the enzyme. 1H NMR spectra were recorded at fixed time intervals on a Bruker AMXIII-400 spectrometer at an operating frequency of 400 MHz. The signals of the C-α- and C-β-protons were integrated using the modified Enzkin computer program, which is a part of the XWIN-NMR programs. The kinetic curves of the yields of deuterated products were processed according to the method described in [39]. […]

MGL, wild type [4] = conditions: cited from earlier work; remark: listed apart in the source
MGL, wild type [5] = target: MGL, wild type; parameters: method as in PMID 21166645; conditions: cited from earlier work; for Ki: wild type MGL, γ-elimination of L-methionine, read-out: K I (inhibition constant); for type of inhibition of the physiological reaction: wild-type enzyme
MGL, Ser339Ala [6] = target: T1, MGL, Ser339Ala; experiment: biochemical; type: biochemical; conditions: for Ki: Ser339Ala MGL, γ-elimination of L-methionine, 30°C, pH 8.0, read-out: K I (inhibition constant); for type of inhibition of the physiological reaction: mutant enzyme (Ser339Ala MGL)
Experimental: as §1, §2

wild-type MGL = conditions: read-out: dissociation constant of the PLP complex; cited from earlier work
[7] = wild type MGL, substrate of elimination reaction

Molecule	Km (MGL, wild type [1]; [7])	kcat (MGL, wild type [1]; [7])	Km (MGL, Ser339Ala [2])	kcat (MGL, Ser339Ala [2])	Ki (MGL, wild type [5])	type of inhibition of the physiological reaction (MGL, wild type [5])	type of inhibition of the physiological reaction (MGL, Ser339Ala [6])	other results
NC(CCS)C(=O)O (racemic) [DL-Hcy]	970 ± 150 µM	8.51 ± 0.41* s^–1	3390 ± 340 µM	0.28 ± 0.009 s^–1	–	–	–	–
NCC(=O)O [Gly, glycine]	–	–	–	–	48.5 ± 4.37 mM	competitive inhibitors	competitive inhibitors	kex, α-H (exchange rate of C-α-proton) (MGL, Ser339Ala [3]): 0.078 s⁻¹; exchange of the pro-(S) proton (MGL, Ser339Ala [3]; mutant form, long incubation in D2O (led to inactivation of the enzyme)): unable to detect any exchange; kex, α-H (exchange rate of C-α-proton) (MGL, wild type [4]): 20.2* s^-1; Ki (MGL, Ser339Ala [6]): 22.9 ± 2.84 mM
C[C@H](N)C(=O)O [L-Ala, L-alanine]	–	–	–	–	3.41 ± 0.4 mM	competitive inhibitors	competitive inhibitors	kex, α-H (exchange rate of C-α-proton) (MGL, Ser339Ala [3]): 0.387 s⁻¹; kex, β-H (exchange rate of C-β-protons) (MGL, Ser339Ala [3]): 0.116 s⁻¹; Number of exchanged C-α-protons (MGL, Ser339Ala [3]): 1; Number of exchanged C-β-protons (MGL, Ser339Ala [3]): 3; kex, α-H (exchange rate of C-α-proton) (MGL, wild type [4]; wild type MGL): 2.71* s^-1; kex, β-H (exchange rate of C-β-protons) (MGL, wild type [4]; wild type MGL): 2.63* s^-1
CSCC[C@H](N)C(=O)O [L-Met, L-methionine]	700 ± 110 µM	6.2 ± 0.42* s^–1	–	–	–	–	–	specific activity (MGL, Ser339Ala [2]): 0.31 U/mg
CCCC[C@H](N)C(=O)O [L-Nle, L-norleucine]	–	–	–	–	0.6 ± 0.06 mM	competitive inhibitors	competitive inhibitors	kex, α-H (exchange rate of C-α-proton) (MGL, Ser339Ala [3]): 0.46 s⁻¹; kex, β-H (exchange rate of C-β-protons) (MGL, Ser339Ala [3]): 0.12 s⁻¹; Number of exchanged C-α-protons (MGL, Ser339Ala [3]): 1; Number of exchanged C-β-protons (MGL, Ser339Ala [3]): 2; kex, α-H (exchange rate of C-α-proton) (MGL, wild type [4]; wild type MGL): 41.8* s^-1; kex, β-H (exchange rate of C-β-protons) (MGL, wild type [4]; wild type MGL): 4.74* s^-1; Ki (MGL, Ser339Ala [6]): 0.89 ± 0.09 mM
CCC[C@H](N)C(=O)O [L-Nva, L-norvaline]	–	–	–	–	4.6 ± 0.43 mM	competitive inhibitors	competitive inhibitors	Ki (MGL, Ser339Ala [6]): 1.7 ± 0.32 mM
CC[C@H](N)C(=O)O [L-α-Abu, L-α-aminobutyric acid]	–	–	–	–	8.01 ± 0.76 mM	competitive inhibitors	competitive inhibitors	Ki (MGL, Ser339Ala [6]): 4.66 ± 0.51 mM
CC(=O)OCC[C@H](N)C(=O)O [O-Ac-L-Hse, O-acetyl-L-homoserine]	2910 ± 180 µM	2.1 ± 0.053** s^–1	2070 ± 220 µM	0.77 ± 0.011 s^–1	–	–	–	–
CC(=O)OC[C@H](N)C(=O)O [O-Ac-L-Ser]	4280 ± 330 µM	2.13 ± 0.037*** s^–1	16400 ± 1090 µM	0.047 ± 0.001 s^–1	–	–	–	–
Cc1ncc(COP(=O)(O)O)c(C=O)c1O [PLP, pyridoxal 5’-phosphate]	–	–	–	–	–	–	–	Kd (wild-type MGL): 0.000624 mM
CCSCC[C@H](N)C(=O)O [S-Et-L-Hcy]	540 ± 10 µM	6.78 ± 0.02* s^–1	540 ± 37 µM	0.16 ± 0.0016 s^–1	–	–	–	–
S-benzyl-L-cysteine [S-Bzl-L-Cys]	–	8.16 ± 0.23* s^–1	5760 ± 590 µM	1.81 ± 0.094 s^–1	–	–	–	Km (MGL, wild type [1]): 180 ± 20 µM
S-ethyl-L-cysteine [S-Et-L-Cys]	–	5.03 ± 0.16* s^–1	6470 ± 540 µM	0.67 ± 0.024 s^–1	–	–	–	Km (MGL, wild type [1]): 170 ± 20 µM; specific activity (MGL, Ser339Ala [2]): 1.03 U/mg
S-methyl-L-cysteine [S-Met-L-Cys]	710 ± 110 µM	4.6 ± 0.29* s^–1	21800 ± 2250 µM	0.41 ± 0.018 s^–1	–	–	–	–
